Source: patent US20130158098A1, “Alkenyl Substituted Cycloaliphatic Compounds as Chemical Inducers of Proximity” (priority 2010, published 2013)
Entries after “also recorded” stand apart in the source; their conditions may differ.

Assay: Bioavailability of ABA in mice (serum tested by luciferase activation)
Assay type: in vivo, mouse
Protocol: Mice were housed in the Stanford University Research Animal Facility in accordance with federal and institutional guidelines. Mice aged 6 to 8 weeks and weighing about 30 g were orally gavaged with 10 mg of ABA in EtOH/Tween 20/Cremophor (4:3:1; […] or just vehicle with syringes. Blood was collected from the tails of mice at the indicated time after gavage and left on ice for 20 min. After blood was coagulated, the samples were spun down at 1500 g for 20 min and serum was collected for immediate use or snap-frozen and stored at −80° C.
FIG. 5A illustrates the bio-availability of ABA in mice by intraperitoneal injection. With 100 mg ABA/kg mouse body weight, ABA is rapidly available in 30 minutes and still remains in the system after 4 hours. ABA was intraperitoneally injected to mice and serum was collected at indicated time. ABA containing serum was then added as 10% (v/v) of culture media to the CHO cell culture for 24 hours and cells were assayed for luciferase activity. The CHO cells were pre-transfected with the activation and reporter DNA constructs for 24 hours before adding serum. […] With 340 mg ABA/kg mouse body weight, ABA is rapidly available in 1 hour, remains in the system after 8 hours and returns to background level after 24 hours. ABA was orally administrated by gavage to mice and serum was collected at indicated time. ABA containing serum was then added as 10% (v/v) of culture media to the CHO cell culture for 24 hours and cells were assayed for luciferase activity. The CHO cells were pre-transfected with the activation and reporter DNA constructs for 24 hours before adding serum.
In plants, ABA had been reported to be unstable due to active enzymatic degradation (Cutler, A. J. and Krochko, J. E. (1999) Formation and breakdown of ABA. Trends Plant Sci. 4, 472-478). To examine its stability in mammalian cells, ABA was incubated with CHO cells for up to 48 hours, after which the functional ABA concentration was assayed by the ability of the ABA-incubated cell culture medium to induce luciferase production in cells expressing VP16-PYLcs and wild-type Gal4 DBD-ABIcs. […] For potential therapeutic application in humans, the stability of ABA in the serum and its bioavailability in mice was examined (FIG. 16B). The activity of residual ABA in the serum was measured by its ability to induce the transcriptional activation of the luciferase reporter in cells expressing the ABA-activator cassette. The stability of ABA in isolated serum was tested by incubating ABA with fresh human serum or heat-inactivated fetal bovine serum (FBS) for up to 48 hours and then applying the serum as the ABA source to activate luciferase. […] Using this assay, the bioavailability in mice was evaluated. When ABA was injected intraperitoneally, it entered circulation rapidly, and activity was detectable within 30 min (FIG. 33).

[1] = intraperitoneal injection, 100 mg ABA/kg

For `CC1=CC(=O)CC(C)(C)C1(O)/C=C/C(C)=C/C(=O)O` (centres unmarked) [ABA, abscisic acid], the oral availability was “orally bioavailable; also recorded: orally available”, the “time to detectable activity in circulation” value (injected intraperitoneally) was ≤ 30 min and the “time ABA still remains in the system” value [1] was ≥ 4 h. The “time at which ABA is available in serum” value [1] was 30 min, the half-life (mouse, serum, po, 340 mg/kg, administered orally) was ~4 h and the “time ABA remains in the system” value (oral gavage, 340 mg ABA/kg) was ≥ 8 h. The “time at which ABA is available in serum” value (oral gavage, 340 mg ABA/kg) was 60 min and the “time of return to background level” value (oral gavage, 340 mg ABA/kg) was 24 h.
